Measured values published in ChEMBL document CHEMBL1136487, “Novel non-vanilloid VR1 antagonist of high analgesic effects and its structural requirement for VR1 antagonistic effects” (Bioorg Med Chem Lett, 2003).

What follows are compounds tested against Vanilloid receptor (Rattus norvegicus, UniProt Q9ERZ8+Q9WUD2+O35433) (assay: Inhibition of [Ca2+] uptake in dorsal root ganglion (DRG) neurons from neonatal Sprague-Dawley rat).
Assay type: functional, tissue-based
CC(C)(C)c1ccc(C/N=C(\S)NCc2cccc(F)c2)cc1 showed an IC50 of over 30 µM.
For CC(C)(C)c1ccc(CNC(=S)NCc2ccc(NS(C)(=O)=O)c(F)c2)cc1, the IC50 was 0.037 µM.
Oc1cc2c(cc1O)CN(C(=S)NCCc1ccc(Cl)cc1)CCC2 [CAPSAZEPINE] gave an IC50 of 0.59 µM.
